Numbered stars: 1 amine (or outer) side, 2 acyl side, 3 side chain; on linkers, the order of the positions; unused ones are H or OH. Bridge positions count the residues as written; N and C are the ends. Square brackets hold non-standard residues; d marks the D form. Peptide text beside a SMILES is read from it. X4 = CC(C)c1cccc2c(C[C@H](N[*:1])C(=O)[*:2])c[nH]c12; Trp(7-Me) = Cc1cccc2c(C[C@H](N)C(=O)O)c[nH]c12; Trp(1-Me) = Cn1cc(C[C@H](N)C(=O)O)c2ccccc21; Abu(4-yl) = O=C([C@H](CC[*:3])N[*:1])[*:2]; 2Nal = N[C@@H](Cc1ccc2ccccc2c1)C(=O)O; AEF = NCCOc1ccc(C[C@H](N)C(=O)O)cc1; Cit = NC(=O)NCCC[C@H](N)C(=O)O; Pen = CC(C)(S)[C@H](N)C(=O)O; αMeK = C[C@](N)(CCCCN)C(=O)O; Aib = CC(C)(N)C(=O)O; βAla = NCCC(=O)O
Assays:
[1] = biological target: T1, IL-23R (Homo sapiens, UniProt Q5VWK5); assay: DB cells IL23R pSTAT3 cell assay (pStat3 HTRF); type: cell-based; details: Table E3; DB cells, IL-23 0.5 nM, 30 minutes at 37° C.; read-out: pStat3 HTRF (IC50)
T1 sequence (Q5VWK5 24-629): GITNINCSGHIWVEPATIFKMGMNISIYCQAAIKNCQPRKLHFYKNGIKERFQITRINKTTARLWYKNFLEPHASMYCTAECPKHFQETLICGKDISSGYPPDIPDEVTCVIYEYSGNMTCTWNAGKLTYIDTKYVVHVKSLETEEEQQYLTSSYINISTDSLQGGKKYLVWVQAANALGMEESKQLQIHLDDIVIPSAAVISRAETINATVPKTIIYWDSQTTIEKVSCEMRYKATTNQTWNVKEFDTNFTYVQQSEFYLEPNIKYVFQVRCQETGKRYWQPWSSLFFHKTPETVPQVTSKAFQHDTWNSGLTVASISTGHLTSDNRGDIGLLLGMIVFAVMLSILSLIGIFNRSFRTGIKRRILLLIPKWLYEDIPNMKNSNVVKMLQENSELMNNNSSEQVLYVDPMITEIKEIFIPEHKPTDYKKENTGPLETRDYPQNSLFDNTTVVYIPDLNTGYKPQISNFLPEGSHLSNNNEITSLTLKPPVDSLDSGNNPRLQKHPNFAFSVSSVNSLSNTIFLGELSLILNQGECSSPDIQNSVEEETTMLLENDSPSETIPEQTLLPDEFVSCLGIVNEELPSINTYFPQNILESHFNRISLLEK
Procedure, shortened: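 HTRF readout of lysate pSTAT3 (Tyr705) after two-plate processing. Peptide dilution series co-incubated with IL-23 (0.5 nM final) on 5×10E5 IL-23R-expressing DB cells per well, 30 min, 37 °C.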

[2] = in vitro; type: in vitro ADME; design: half-life: dose or concentration left out as unconfirmed; details: simulated intestinal fluid (SIF) with pancreatin, pH 6.8, 37° C., § matrix is 100 fold dilution of standard SIF concentration, read-out: SIF t½ (converted)
Method: SIF was prepared by adding 6.8 g of monobasic potassium phosphate and 10.0 g of pancreatin to 1.0 L of water. After dissolution, the pH was adjusted to 6.8 using NaOH. DMSO stocks (2 mM) were first prepared for the test compounds. Aliquots of the DMSO solutions were dosed into 6 individual tubes, each containing 0.5 mL of SIF, which is pre-warmed to 37° C. The final test compound concentration was 20 M. The vials were kept in a benchtop Thermomixer® for the duration of the experiment. At each timepoint (0, 5, 10, 20, 40, 60, or 360 minutes or 24 hours), 1.0 mL of acetonitrile containing 1% formic acid was added to one vial to terminate the reaction. Samples were stored at 4° C. until the end of the experiment. After the final timepoint is sampled, the tubes were mixed and then centrifuged at 3,000 rpm for 10 minutes. Aliquots of the supernatant were removed, diluted 1:1 into distilled water containing internal standard, and analyzed by LCMS/MS. Percent remaining at each timepoint was calculated based on the peak area response ratio of test to compound to internal standard. Time 0 was set to 100%, and all later timepoints were calculated relative to time 0. Half-lives were calculated by fitting to a first-order exponential decay equation using Graphpad.

[3] = in vitro; details: human, 20% fecal homogenate (supernatant), anaerobic, pH 6.8
[4] = in vitro; details: cynomolgus monkey, 20% fecal homogenate (supernatant), anaerobic, pH 6.8
[5] = in vitro; details: both, SD, rat, plasma (EDTA)

SMILES: CC(=O)NCCCC[C@H](NC(=O)[C@](C)(CCCCN)NC(=O)[C@H](Cc1ccc2ccccc2c1)NC(=O)[C@H](Cc1ccc(OCCN)cc1)NC(=O)[C@H]1NC(=O)[C@H](CCCCNC(=O)CN)NC(=O)[C@H](Cc2c[nH]c3c(C)cccc23)NC(=O)[C@H]([C@@H](C)O)NC(=O)[C@H](CC(N)=O)NC(=O)[C@@H](NC(C)=O)C(C)(C)SSC1(C)C)C(=O)N[C@@H](CC(N)=O)C(=O)N[C@H](CC(C)C)C(N)=O [compound 320]
- IC50 [1]: < 1 nM
- half-life [2]: 12 h

SMILES: CC(=O)NCCCC[C@H](NC(=O)[C@](C)(CCCCN)NC(=O)[C@H](Cc1ccc2ccccc2c1)NC(=O)[C@H](Cc1ccc(OCCN)cc1)NC(=O)[C@H]1NC(=O)[C@H](CCCCNC(=O)CCN)NC(=O)[C@H](Cc2c[nH]c3c(C)cccc23)NC(=O)[C@H]([C@@H](C)O)NC(=O)[C@H](CC(N)=O)NC(=O)[C@@H](NC(C)=O)C(C)(C)SSC1(C)C)C(=O)N[C@@H](CC(N)=O)C(=O)N[C@H](CC(C)C)C(N)=O [compound 321]
- IC50 [1]: 1 to 10 nM
- half-life [2]: 3 h

SMILES: CC(=O)NCCCC[C@H](NC(=O)[C@](C)(CCCCN)NC(=O)[C@H](Cc1ccc2ccccc2c1)NC(=O)[C@H](Cc1ccc(OCCN)cc1)NC(=O)[C@H]1NC(=O)C(C)(C)NC(=O)[C@H](Cc2c[nH]c3c(C)cccc23)NC(=O)[C@H]([C@@H](C)O)NC(=O)[C@H](CC(N)=O)NC(=O)[C@@H](NC(C)=O)C(C)(C)SSC1(C)C)C(=O)N[C@@H](CC(N)=O)C(=O)NCCC(N)=O [compound 241] (Ac-[Pen]NT[Trp(7-Me)][Aib][Pen][AEF][2Nal][αMeK]K(Ac)N[βAla]-NH2; disulfide 1-6)
- IC50 [1]: 10 to 100 nM
- half-life at 20 μM [3]: > 24 h
- half-life at 20 μM [4]: 15 h
- half-life at 20 μM [5]: > 24 h

SMILES: CC(=O)NCCCC[C@@H]1NC(=O)[C@H](Cc2c[nH]c3c(C)cccc23)NC(=O)[C@H]([C@@H](C)O)NC(=O)[C@H](CCC(N)=O)NC(=O)[C@@H](NC(=O)[C@@H](CCCNC(=N)N)NC(C)=O)CCSC[C@@H](C(=O)N[C@@H](Cc2ccc(OCCN)cc2)C(=O)N[C@@H](Cc2ccc3ccccc3c2)C(=O)N[C@@](C)(CCCCN)C(=O)N[C@@H](CCCCNC(C)=O)C(=O)N[C@@H](CC(N)=O)C(=O)N[C@H](CCCCN)C(N)=O)NC1=O [compound 324] (Ac-[dR][Abu(4-yl)]QT[Trp(7-Me)]K(Ac)C[AEF][2Nal][αMeK]K(Ac)N[dK]-NH2; thioether 2-7)
- IC50 [1]: 10 to 100 nM
- half-life [2]: 1 h

SMILES: CC(=O)N[C@@H]1C(=O)N[C@@H](CC(N)=O)C(=O)N[C@@H]([C@@H](C)O)C(=O)N[C@@H](Cc2c[nH]c3c(C)cccc23)C(=O)N[C@@H](CCC(N)=O)C(=O)N[C@H](C(=O)N[C@@H](Cc2ccc(OCCN)cc2)C(=O)N[C@@H](Cc2ccc3ccccc3c2)C(=O)N[C@@](C)(CC(C)C)C(=O)NCC(=O)N2CCC[C@@H]2C(=O)NCCC(N)=O)C(C)(C)SSC1(C)C [compound 220]
- IC50 [1]: > 100 nM
- half-life at 20 μM [3]: > 24 h
- half-life at 20 μM [4]: 21 h
- half-life at 20 μM [5]: 1 h

SMILES: CC(=O)NCCCC[C@H](NC(=O)[C@](C)(CCCCN)NC(=O)[C@H](Cc1ccc2ccccc2c1)NC(=O)[C@H](Cc1ccc(OCCN)cc1)NC(=O)[C@H]1NC(=O)[C@H](CCCNC(N)=O)NC(=O)[C@H](Cc2c[nH]c3c(C)cccc23)NC(=O)[C@H]([C@@H](C)O)NC(=O)[C@H](CC(N)=O)NC(=O)[C@@H](NC(C)=O)C(C)(C)SSC1(C)C)C(=O)N[C@@H](CC(N)=O)C(=O)N[C@@H](Cc1ccc(O)cc1)C(N)=O [compound 266] (Ac-[Pen]NT[Trp(7-Me)][Cit][Pen][AEF][2Nal][αMeK]K(Ac)NY-NH2; disulfide 1-6)
- IC50 [1]: 1 to 10 nM
- half-life at 20 μM [3]: 16 h
- half-life at 20 μM [4]: 7 h
- half-life at 20 μM [5]: > 24 h

SMILES: CC(=O)NCCCC[C@H](NC(=O)[C@](C)(CCCCN)NC(=O)[C@H](Cc1ccc2ccccc2c1)NC(=O)[C@H](Cc1ccc(OCCN)cc1)NC(=O)[C@H]1NC(=O)[C@H](CCCCNC(=O)C2CCCCC2)NC(=O)[C@H](Cc2c[nH]c3c(C)cccc23)NC(=O)[C@H]([C@@H](C)O)NC(=O)[C@H](CC(N)=O)NC(=O)[C@@H](NC(C)=O)C(C)(C)SSC1(C)C)C(=O)N[C@@H](CC(N)=O)C(=O)N[C@H](CC(C)C)C(N)=O [compound 316]
- IC50 [1]: 1 to 10 nM
- half-life [2]: 7 h

SMILES: CC(=O)NCCCC[C@H](NC(=O)[C@](C)(CCCCN)NC(=O)[C@H](Cc1ccc2ccccc2c1)NC(=O)[C@H](Cc1ccc(OCCN)cc1)NC(=O)[C@H]1NC(=O)[C@H](CCCNC(N)=O)NC(=O)[C@H](Cc2c[nH]c3c(C)cccc23)NC(=O)[C@H]([C@@H](C)O)NC(=O)[C@H](CC(N)=O)NC(=O)[C@@H](NC(C)=O)C(C)(C)SSC1(C)C)C(=O)N[C@@H](CC(N)=O)C(=O)N[C@H](CCCNC(=N)N)C(N)=O [compound 256] (Ac-[Pen]NT[Trp(7-Me)][Cit][Pen][AEF][2Nal][αMeK]K(Ac)N[dR]-NH2; disulfide 1-6)
- IC50 [1]: < 1 nM
- half-life at 20 μM [3]: > 24 h
- half-life at 20 μM [4]: > 24 h
- half-life at 20 μM [5]: > 24 h

SMILES: CC(=O)NCCCC[C@H](NC(=O)[C@](C)(CCCCN)NC(=O)[C@H](Cc1ccc2ccccc2c1)NC(=O)[C@H](Cc1ccc(OCCN)cc1)NC(=O)[C@H]1NC(=O)[C@H](CCC(N)=O)NC(=O)[C@H](Cc2c(C(C)(C)C)[nH]c3c(C(C)(C)C)cc(C(C)(C)C)cc23)NC(=O)[C@H]([C@@H](C)O)NC(=O)[C@H](CC(N)=O)NC(=O)[C@@H](NC(C)=O)C(C)(C)SSC1(C)C)C(=O)N[C@@H](CC(N)=O)C(=O)NCCC(N)=O [compound 233]
- IC50 [1]: > 100 nM
- half-life at 20 μM [3]: > 24 h
- half-life at 20 μM [4]: > 24 h
- half-life at 20 μM [5]: > 24 h

SMILES: CC(=O)NCCCC[C@H](NC(=O)[C@](C)(CCCCN)NC(=O)[C@H](Cc1ccc2ccccc2c1)NC(=O)[C@H](Cc1ccc(OCCN)cc1)NC(=O)[C@H]1NC(=O)[C@H](CCCNC(N)=O)NC(=O)[C@H](Cc2c[nH]c3c(C)cccc23)NC(=O)[C@H]([C@@H](C)O)NC(=O)[C@H](CC(N)=O)NC(=O)[C@@H](NC(C)=O)C(C)(C)SSC1(C)C)C(=O)N[C@@H](CC(N)=O)C(=O)N[C@@H](CO)C(N)=O [compound 260] (Ac-[Pen]NT[Trp(7-Me)][Cit][Pen][AEF][2Nal][αMeK]K(Ac)NS-NH2; disulfide 1-6)
- IC50 [1]: < 1 nM
- half-life at 20 μM [3]: 15 h
- half-life at 20 μM [4]: 3 h
- half-life at 20 μM [5]: > 24 h

SMILES: CC(=O)NCCCC[C@@H]1NC(=O)[C@H](Cc2c[nH]c3c(C(C)C)cccc23)NC(=O)[C@H]([C@@H](C)O)NC(=O)[C@H](CC(N)=O)NC(=O)[C@@H](NC(C)=O)C(C)(C)SSC(C)(C)[C@@H](C(=O)N[C@@H](Cc2ccc(OCCN)cc2)C(=O)N[C@@H](Cc2ccc3ccccc3c2)C(=O)N[C@@](C)(CCCCN)C(=O)N[C@@H](CCCCNC(C)=O)C(=O)N[C@@H](CC(N)=O)C(=O)N[C@H](CC(C)C)C(N)=O)NC1=O [compound 286] (Ac-[Pen]NT[X4]K(Ac)[Pen][AEF][2Nal][αMeK]K(Ac)N[dL]-NH2; disulfide 1-6)
- IC50 [1]: 1 to 10 nM
- half-life at 20 μM [3]: > 24 h
- half-life at 20 μM [4]: > 24 h
- half-life at 20 μM [5]: > 24 h

SMILES: CC(=O)NCCCC[C@H](NC(=O)[C@](C)(CCCCN)NC(=O)[C@H](Cc1cn(C)c2ccccc12)NC(=O)[C@H](Cc1ccc(OCCN)cc1)NC(=O)[C@H]1NC(=O)[C@H](CCC(N)=O)NC(=O)[C@H](Cc2c[nH]c3c(C)cccc23)NC(=O)[C@H]([C@@H](C)O)NC(=O)[C@H](CC(N)=O)NC(=O)[C@@H](NC(C)=O)C(C)(C)SSC1(C)C)C(=O)N[C@@H](CC(N)=O)C(=O)NCCC(N)=O [compound 283] (Ac-[Pen]NT[Trp(7-Me)]Q[Pen][AEF][Trp(1-Me)][αMeK]K(Ac)N[βAla]-NH2; disulfide 1-6)
- IC50 [1]: 1 to 10 nM
- half-life at 20 μM [3]: > 24 h
- half-life at 20 μM [4]: 17 h
- half-life at 20 μM [5]: > 24 h

SMILES: CC(=O)NCCCC[C@H](NC(=O)[C@](C)(CCCCN)NC(=O)[C@H](Cc1ccc2ccccc2c1)NC(=O)[C@H](Cc1ccc(OCCN)cc1)NC(=O)[C@H]1NC(=O)[C@H](CCCCNC(=O)CC(C)C)NC(=O)[C@H](Cc2c[nH]c3c(C)cccc23)NC(=O)[C@H]([C@@H](C)O)NC(=O)[C@H](CC(N)=O)NC(=O)[C@@H](NC(C)=O)C(C)(C)SSC1(C)C)C(=O)N[C@@H](CC(N)=O)C(=O)N[C@H](CC(C)C)C(N)=O [compound 315]
- IC50 [1]: 1 to 10 nM
- half-life [2]: 9 h

SMILES: CC(=O)NCCCC[C@H](NC(=O)[C@](C)(CC(C)C)NC(=O)[C@H](Cc1ccc2ccccc2c1)NC(=O)[C@H](Cc1ccc(OCCN)cc1)NC(=O)[C@H]1NC(=O)[C@H](CCC(N)=O)NC(=O)[C@H](Cc2c[nH]c3c(C)cccc23)NC(=O)[C@H]([C@@H](C)O)NC(=O)[C@H](CC(N)=O)NC(=O)[C@@H](NC(C)=O)C(C)(C)SSC1(C)C)C(=O)N[C@H](CC(C)C)C(=O)NCCC(N)=O [compound 210]
- IC50 [1]: 10 to 100 nM
- half-life at 20 μM [3]: > 24 h
- half-life at 20 μM [4]: > 24 h
- half-life at 20 μM [5]: < 0.3 h
